# From article PMC12257073 (Cancer Research Communications, 2025)
# Read-outs that look alike come from different tables or passages of the source.
# Columns and labels:
# TP53-mutated AML = settings: cited from earlier work
# [1] = Adverse events (treatment-related and all-cause) and dose-limiting toxicities, NCI CTCAE version 4.0; settings: all treated patients, TP-0903 + decitabine
# Method: The phase 1b portion of the study used a standard 3 + 3 dose-escalation design with a starting dose level 1 (DL1) of 37 mg oral daily TP-0903 (Supplementary Table S2) based on experience with 50 mg oral daily as a single agent in patients with solid tumors ([25]). Dose-limiting toxicities (DLT) were evaluated to establish the dose brought forward for an expansion cohort (phase 2). Seven patients were enrolled in the phase 1b study, which was completed in January 2021 with the decision to move forward with an expansion cohort of 37 mg oral daily. Across the phase 1b and phase 2 studies, 15 patients were enrolled and started on 37 mg TP-0903 oral daily on days 1 to 21 (group 1). […] One additional patient was enrolled at this time but was inadvertently started on 25 mg TP-0903 oral daily on days 1 to 21. […] In May 2021, an amendment was approved to allow enrollment of a new group 2 at 25mg oral daily on days 1 to 21 of TP-0903 (DL-1) in stage 2 of the phase 2 study.
# Clinical response was assessed according to the modified 2017 European LeukemiaNet AML criteria ([26]). The primary endpoint was achievement of CR within six cycles of therapy. Secondary endpoints included toxicity, duration of response, OS, and the proportion of eligible patients who effectively transitioned to allogeneic stem cell transplantation. Exploratory endpoints included pharmacokinetics (PK), correlative genetic, and biochemical data; correlations between morphologic remission, spectral flow cytometry, and mutational remission; and duration of remission or survival. […] Adverse events (AE) were graded according to the NCI Common Terminology Criteria for Adverse Events version 4.0 ([27]).
molecule,measurement,setting,value
magrolimab,Median OS,"TP53-mutated AML; magrolimab and azacitidine, TP53-mutated patients",9.8 months
CC1(C)CCC(CN2CCN(c3ccc(C(=O)NS(=O)(=O)c4ccc(NCC5CCOCC5)c([N+](=O)[O-])c4)c(Oc4cnc5[nH]ccc5c4)c3)CC2)=C(c2ccc(Cl)cc2)C1 [venetoclax],Median OS,"TP53-mutated AML; venetoclax added to HMAs, no difference vs HMA alone",approximately 5.2 months
same,CR + CRi rate,TP53-mutated AML; venetoclax added to HMAs,55%
same,Median OS,"TP53-mutated AML; venetoclax and azacitidine, TP53-mutated patients with poor-risk cytogenetics",5.2 months
same,Median OS,"TP53-mutated AML; venetoclax in combination with azacitidine, older or medically unfit patients with AML",≤ 17.5 months
same,CR + CRi rate,"TP53-mutated AML; venetoclax plus azacitidine, patients with mutant TP53",55%
c1cn2cc(-c3ccc4cn[nH]c4c3)nc(Nc3ccc(N4CCOCC4)cc3)c2n1 [entospletinib],CR + CRi rate,"TP53-mutated AML; entospletinib and a 10-day course of decitabine, complex karyotype AML with a TP53 mutation",17.1%
same,Median OS,"TP53-mutated AML; entospletinib combined with decitabine, patients with mutant TP53",6.5 months
"Nc1ncn([C@H]2C[C@H](O)[C@@H](CO)O2)c(=O)n1 [decitabine, reference compound]",Serious AEs related to decitabine,[1],only one patient had a serious AE related to decitabine (grade 3 pneumonia)
Nc1ncn([C@@H]2O[C@H](CO)[C@@H](O)[C@H]2O)c(=O)n1 [azacitidine],Median OS,"TP53-mutated AML; TP53-mutated patients, azacitidine",7.9 months
COCC1(CO)C(=O)C2CCN1CC2 (stereo not drawn) [eprenetapopt],Median OS,TP53-mutated AML; eprenetapopt combined with azacitidine,less than 1 year
same,CR rate,"TP53-mutated AML; eprenetapopt, mutant p53",≤ 17%
